According to ChEMBL document CHEMBL1909046, “DrugMatrix in vitro pharmacology data”:

Legend:
[1] = molecular target: Beta-2 adrenergic receptor (Homo sapiens, UniProt P07550); assay: DRUGMATRIX: Adrenergic beta2 radioligand binding (ligand: [3H] CGP-12177); type: cell membranes, Membrane; settings: cho; Not Active = under 50% inhibition at 10 µM
Insulin receptor = Insulin receptor (Rattus norvegicus, UniProt P15127); type: cell membranes, Wistar, Liver, Membrane; note: in other assays of this panel Not Active means under 50% inhibition at 10 µM
[2] = molecular target: Mitogen-activated protein kinase 1 (Homo sapiens, UniProt P28482); assay: DRUGMATRIX: Protein Serine/Threonine Kinase, ERK2 enzyme inhibition (substrate: Myelin Basic Protein); parameters: species or system Escherichia coli; settings: Not Active = under 50% inhibition at 10 µM
[3] = DRUGMATRIX: Phosphodiesterase PDE4 enzyme inhibition (substrate: [3H]cAMP + cAMP); settings: u-937; Not Active = under 50% inhibition at 10 µM
[4] = DRUGMATRIX: Purinergic P2X radioligand binding (ligand: [3H] alpha, beta-Methylene-ATP); type: cell membranes, Oryctolagus cuniculus, New Zealand albino, Urinary bladder, Membrane; settings: Not Active = under 50% inhibition at 10 µM
[5] = molecular target: T1, Vasoactive intestinal polypeptide receptor 1 (Homo sapiens, UniProt P32241); type: cell membranes, Membrane; settings: ht-29; note: in other assays of this panel Not Active means under 50% inhibition at 10 µM
T1 sequence (P32241 whole entry): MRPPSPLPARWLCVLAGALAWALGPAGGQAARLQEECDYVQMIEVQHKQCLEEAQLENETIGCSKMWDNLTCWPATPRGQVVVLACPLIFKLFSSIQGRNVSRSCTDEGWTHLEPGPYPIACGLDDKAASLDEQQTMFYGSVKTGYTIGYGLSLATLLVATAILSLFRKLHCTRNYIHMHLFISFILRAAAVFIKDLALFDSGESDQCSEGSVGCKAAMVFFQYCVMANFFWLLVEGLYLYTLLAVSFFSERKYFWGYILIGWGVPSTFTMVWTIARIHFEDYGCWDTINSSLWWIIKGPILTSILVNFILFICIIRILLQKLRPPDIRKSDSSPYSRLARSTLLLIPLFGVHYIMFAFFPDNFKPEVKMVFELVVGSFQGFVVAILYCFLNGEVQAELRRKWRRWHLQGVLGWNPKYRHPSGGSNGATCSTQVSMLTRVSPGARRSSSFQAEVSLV

[6] = molecular target: 5-hydroxytryptamine receptor 1B (Rattus norvegicus, UniProt P28564); type: cell membranes, Wistar, Cerebral cortex, Membrane; note: in other assays of this panel Not Active means under 50% inhibition at 10 µM
[7] = molecular target: Tyrosine-protein kinase Fyn (Homo sapiens, UniProt P06241); assay: biochemical; type: cell-based, Insect cells; settings: insect cells;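 note: enzymatic inhibition of Fyn kinase activity measured with Poly(Glu:Tyr) as the phosphorylation substrate; in other assays of this panel Not Active means under 50% inhibition at 10 µM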
Progesterone receptor = molecular target: T2, Progesterone receptor (Bos taurus, UniProt Q690N0); assay: DRUGMATRIX: Progesterone radioligand binding (ligand: [3H] R-5020); type: tissue-based, Uterus; settings: Not Active = under 50% inhibition at 10 µM
T2 sequence (Q690N0 whole entry): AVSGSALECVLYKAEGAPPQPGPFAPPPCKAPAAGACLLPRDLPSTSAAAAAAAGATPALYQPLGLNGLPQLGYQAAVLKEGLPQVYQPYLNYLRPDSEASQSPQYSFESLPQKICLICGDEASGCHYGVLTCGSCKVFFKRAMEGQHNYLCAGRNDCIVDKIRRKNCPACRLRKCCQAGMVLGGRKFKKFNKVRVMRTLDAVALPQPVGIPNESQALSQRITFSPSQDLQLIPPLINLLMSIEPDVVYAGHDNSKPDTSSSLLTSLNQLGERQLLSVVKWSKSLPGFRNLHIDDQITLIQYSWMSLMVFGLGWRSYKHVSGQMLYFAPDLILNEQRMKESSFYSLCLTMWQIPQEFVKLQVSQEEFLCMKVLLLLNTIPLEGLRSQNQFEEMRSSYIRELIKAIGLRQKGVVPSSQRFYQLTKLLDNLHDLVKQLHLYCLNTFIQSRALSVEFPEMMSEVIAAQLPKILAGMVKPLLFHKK

[8] = molecular target: Sodium-dependent noradrenaline transporter (Homo sapiens, UniProt P23975); assay: DRUGMATRIX: Norepinephrine Transporter radioligand binding (ligand: [125I] RTI-55); type: cell membranes, MDCK, Membrane; settings: mdck; Not Active = under 50% inhibition at 10 µM
[9] = DRUGMATRIX: GABAA, Flunitrazepam, Central radioligand binding (ligand: [3H] Flunitrazepam); type: cell membranes, Rattus norvegicus, Wistar, Brain, Membrane; settings: Not Active = under 50% inhibition at 10 µM
[10] = molecular target: T3, 3-hydroxy-3-methylglutaryl-coenzyme A reductase (Homo sapiens, UniProt P04035); parameters: species or system Escherichia coli
T3 sequence (P04035 whole entry): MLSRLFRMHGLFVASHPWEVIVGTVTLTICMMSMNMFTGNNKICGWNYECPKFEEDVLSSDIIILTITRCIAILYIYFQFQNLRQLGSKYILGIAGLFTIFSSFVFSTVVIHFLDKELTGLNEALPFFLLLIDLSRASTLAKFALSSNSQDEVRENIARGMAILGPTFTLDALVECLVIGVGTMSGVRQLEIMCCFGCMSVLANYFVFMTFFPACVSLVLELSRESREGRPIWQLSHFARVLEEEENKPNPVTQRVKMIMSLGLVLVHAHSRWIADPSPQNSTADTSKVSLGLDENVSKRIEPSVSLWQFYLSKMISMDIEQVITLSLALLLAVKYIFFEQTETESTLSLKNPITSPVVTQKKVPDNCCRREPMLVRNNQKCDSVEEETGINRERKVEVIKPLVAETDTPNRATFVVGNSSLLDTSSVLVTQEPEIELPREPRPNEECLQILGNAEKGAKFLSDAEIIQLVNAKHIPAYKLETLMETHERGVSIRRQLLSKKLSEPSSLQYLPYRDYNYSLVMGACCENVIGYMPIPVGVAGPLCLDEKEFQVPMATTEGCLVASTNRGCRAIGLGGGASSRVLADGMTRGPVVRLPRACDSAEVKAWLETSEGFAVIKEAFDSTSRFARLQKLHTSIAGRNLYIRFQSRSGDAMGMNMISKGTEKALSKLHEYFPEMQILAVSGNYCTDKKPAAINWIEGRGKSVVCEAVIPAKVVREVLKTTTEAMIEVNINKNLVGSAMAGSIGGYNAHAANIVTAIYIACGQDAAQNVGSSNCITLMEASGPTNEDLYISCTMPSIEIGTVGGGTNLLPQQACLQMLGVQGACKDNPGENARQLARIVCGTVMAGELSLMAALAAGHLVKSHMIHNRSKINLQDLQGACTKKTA

Chain of Mitogen-activated protein kinase 1 (P28482 whole entry): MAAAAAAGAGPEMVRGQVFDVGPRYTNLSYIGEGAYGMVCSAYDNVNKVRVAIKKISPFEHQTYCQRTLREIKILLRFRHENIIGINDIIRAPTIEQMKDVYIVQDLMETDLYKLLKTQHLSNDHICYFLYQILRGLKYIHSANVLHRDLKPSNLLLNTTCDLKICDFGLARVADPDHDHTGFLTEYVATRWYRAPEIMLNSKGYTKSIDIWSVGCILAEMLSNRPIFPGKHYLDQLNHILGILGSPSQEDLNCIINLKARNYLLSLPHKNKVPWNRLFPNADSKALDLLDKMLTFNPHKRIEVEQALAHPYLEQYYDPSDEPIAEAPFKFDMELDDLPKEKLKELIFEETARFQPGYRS
Chain of 5-hydroxytryptamine receptor 1B (P28564 whole entry): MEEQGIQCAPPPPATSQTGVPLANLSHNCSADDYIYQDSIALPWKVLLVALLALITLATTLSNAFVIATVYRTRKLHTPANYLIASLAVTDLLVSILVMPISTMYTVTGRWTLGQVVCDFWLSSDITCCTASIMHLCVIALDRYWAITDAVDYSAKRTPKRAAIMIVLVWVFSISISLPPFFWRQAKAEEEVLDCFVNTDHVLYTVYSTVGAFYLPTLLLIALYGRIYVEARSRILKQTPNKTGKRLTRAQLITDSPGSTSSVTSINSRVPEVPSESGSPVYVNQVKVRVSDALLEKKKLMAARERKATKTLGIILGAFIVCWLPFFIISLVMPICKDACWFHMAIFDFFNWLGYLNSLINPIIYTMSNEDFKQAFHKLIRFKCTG
Chain of Sodium-dependent noradrenaline transporter (P23975 whole entry): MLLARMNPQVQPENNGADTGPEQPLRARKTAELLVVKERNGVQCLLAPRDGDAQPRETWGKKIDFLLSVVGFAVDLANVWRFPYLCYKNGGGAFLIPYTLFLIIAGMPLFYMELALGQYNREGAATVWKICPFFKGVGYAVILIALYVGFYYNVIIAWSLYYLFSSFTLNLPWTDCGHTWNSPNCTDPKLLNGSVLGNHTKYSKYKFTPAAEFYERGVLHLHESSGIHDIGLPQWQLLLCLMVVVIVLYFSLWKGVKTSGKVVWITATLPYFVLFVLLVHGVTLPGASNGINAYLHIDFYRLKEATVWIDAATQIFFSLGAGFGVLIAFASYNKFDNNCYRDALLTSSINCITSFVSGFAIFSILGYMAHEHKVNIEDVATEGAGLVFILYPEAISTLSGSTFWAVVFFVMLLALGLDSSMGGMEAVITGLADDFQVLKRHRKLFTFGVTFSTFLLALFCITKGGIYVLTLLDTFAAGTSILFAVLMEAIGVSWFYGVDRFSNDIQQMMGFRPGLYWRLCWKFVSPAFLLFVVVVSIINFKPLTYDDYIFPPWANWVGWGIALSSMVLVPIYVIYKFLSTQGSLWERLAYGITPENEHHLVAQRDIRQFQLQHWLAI
Chain of Tyrosine-protein kinase Fyn (P06241 whole entry): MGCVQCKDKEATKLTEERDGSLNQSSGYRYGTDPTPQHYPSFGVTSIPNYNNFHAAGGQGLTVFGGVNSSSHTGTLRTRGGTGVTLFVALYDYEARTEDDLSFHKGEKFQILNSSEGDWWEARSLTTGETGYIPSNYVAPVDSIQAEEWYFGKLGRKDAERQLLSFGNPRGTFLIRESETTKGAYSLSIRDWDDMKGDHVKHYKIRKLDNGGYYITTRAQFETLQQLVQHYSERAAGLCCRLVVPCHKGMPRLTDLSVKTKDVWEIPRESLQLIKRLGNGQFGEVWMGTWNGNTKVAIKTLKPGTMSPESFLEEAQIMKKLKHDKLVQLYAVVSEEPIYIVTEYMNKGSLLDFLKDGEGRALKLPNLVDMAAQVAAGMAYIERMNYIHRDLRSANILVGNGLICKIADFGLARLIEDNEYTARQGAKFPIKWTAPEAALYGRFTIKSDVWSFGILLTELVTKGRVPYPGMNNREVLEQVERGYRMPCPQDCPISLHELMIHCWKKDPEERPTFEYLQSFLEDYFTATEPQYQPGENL
Chain of Insulin receptor (P15127 27-759 limits assumed): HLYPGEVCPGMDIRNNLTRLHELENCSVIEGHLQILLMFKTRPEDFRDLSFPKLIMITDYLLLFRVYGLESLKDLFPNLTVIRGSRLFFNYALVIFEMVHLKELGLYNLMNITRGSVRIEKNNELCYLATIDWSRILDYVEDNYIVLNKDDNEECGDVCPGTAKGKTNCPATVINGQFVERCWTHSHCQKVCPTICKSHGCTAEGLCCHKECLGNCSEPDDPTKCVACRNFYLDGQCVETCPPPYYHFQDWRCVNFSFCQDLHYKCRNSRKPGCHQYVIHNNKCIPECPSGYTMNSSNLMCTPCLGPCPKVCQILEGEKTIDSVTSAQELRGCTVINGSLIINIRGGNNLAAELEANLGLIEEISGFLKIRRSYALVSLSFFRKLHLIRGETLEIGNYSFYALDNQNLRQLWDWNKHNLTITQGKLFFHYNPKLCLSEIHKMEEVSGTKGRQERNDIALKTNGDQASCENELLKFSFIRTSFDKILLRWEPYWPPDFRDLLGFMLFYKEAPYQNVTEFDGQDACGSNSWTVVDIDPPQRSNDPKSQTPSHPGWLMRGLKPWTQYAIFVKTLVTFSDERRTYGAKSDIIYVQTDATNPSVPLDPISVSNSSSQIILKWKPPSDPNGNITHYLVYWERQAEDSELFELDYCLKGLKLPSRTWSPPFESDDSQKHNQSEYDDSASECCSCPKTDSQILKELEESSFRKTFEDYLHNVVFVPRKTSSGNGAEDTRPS
Chain of Insulin receptor (P15127 764-1383 limits assumed): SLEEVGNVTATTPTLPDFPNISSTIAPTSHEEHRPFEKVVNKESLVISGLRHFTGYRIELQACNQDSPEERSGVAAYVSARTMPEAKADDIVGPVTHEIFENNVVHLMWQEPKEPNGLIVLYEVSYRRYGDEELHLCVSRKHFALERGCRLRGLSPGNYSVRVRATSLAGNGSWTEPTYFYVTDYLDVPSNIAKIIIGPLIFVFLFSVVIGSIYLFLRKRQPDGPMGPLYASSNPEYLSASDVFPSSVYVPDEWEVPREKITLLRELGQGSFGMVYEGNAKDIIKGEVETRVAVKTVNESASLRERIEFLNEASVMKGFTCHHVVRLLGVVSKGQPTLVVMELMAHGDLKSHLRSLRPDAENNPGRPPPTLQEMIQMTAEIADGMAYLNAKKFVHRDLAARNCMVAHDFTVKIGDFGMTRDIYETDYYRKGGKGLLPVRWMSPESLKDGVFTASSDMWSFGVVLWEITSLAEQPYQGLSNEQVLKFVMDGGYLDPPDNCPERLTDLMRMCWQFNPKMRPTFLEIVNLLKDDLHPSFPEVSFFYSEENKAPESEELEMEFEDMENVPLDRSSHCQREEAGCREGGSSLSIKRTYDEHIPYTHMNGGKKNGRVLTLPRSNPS

Substance | IC50 [1] | Ki [1] | IC50 (Insulin receptor) | Ki (Insulin receptor) | IC50 [2] | Ki [2] | IC50 [3] | Ki [3] | IC50 [4] | Ki [4] | IC50 [5] | Ki [5] | IC50 [6] | Ki [6] | IC50 (Progesterone receptor) | Ki (Progesterone receptor) | IC50 [8] | Ki [8] | IC50 [9] | Ki [9] | further results
CISPLATIN | Not Active | Not Active | Not Active | Not Active | Not Active | Not Active | Not Active | Not Active | Not Active | Not Active | Not Active | Not Active | Not Active | Not Active | Not Active | Not Active | Not Active | Not Active | Not Active | Not Active | IC50 ([7]; read-out: IC50): 4770 nM; IC50 [10]: Not Active; Ki [10]: Not Active
GOLD SODIUM THIOMALATE | Not Active | Not Active | Not Active | Not Active | Not Active | Not Active | Not Active | Not Active | Not Active | Not Active | Not Active | Not Active | Not Active | Not Active | Not Active | Not Active | Not Active | Not Active | Not Active | Not Active | IC50 ([7]; read-out: IC50): 811 nM; IC50 [10]: Not Active; Ki [10]: Not Active
OXALIPLATIN | Not Active | Not Active | Not Active | Not Active | Not Active | Not Active | Not Active | Not Active | Not Active | Not Active | Not Active | Not Active | Not Active | Not Active | Not Active | Not Active | Not Active | Not Active | Not Active | Not Active | IC50 [7]: Not Active; Ki [7]: Not Active; IC50 [10]: Not Active; Ki [10]: Not Active
